# Test results from patent US7345049B2, “Phenylalanine derivatives” (Ajinomoto Co., Inc., priority 2003, dated 2008).
# Tests used:
# [1] = target: T1, VCAM-1/α4β1 integrin binding (Homo sapiens, UniProt P05556+P13612); assay: Assay of antagonistic activity to VCAM-1/α4β1 integrin binding under the existence of blood serum (Jurkat cell adhesion to VCAM-1/Fc); format: cell-based; details: Jurkat cells, recombinant human VCAM-1/Fc, 50% human blood serum
# T1 construct: Jurkat (ATCC TIB-152), known to express integrin α4β1; endogenous in cells; host or cells: Jurkat (ATCC TIB-152)
# Method: Assay of Antagonistic Activity to VCAM-1/α4β1 Integrin Binding Under the Existence of Blood Serum
# The capacity of a test substance antagonistic to the binding of cell strain of human T cells, Jurkat (ATCC TIB-152), known to express integrin α4β1, to VCAM-1 was determined.
# Fifty μl/well of a solution (500 ng/ml) of recombinant human VCAM-1/Fc (R & D systems) diluted with buffer A (0.1 M NaHCO3, pH 9.6) was added to a 96-well microtiter plate (Nunc Maxisorp). After the incubation at 4° C. overnight and washing once with PBS, a buffer (buffer B) obtained by diluting Block Ace (Snow Brand Milk Products Co., Ltd.) with PBS to ½ concentration was added in an amount of 150 μl/well. After the incubation at room temperature for 2 hours, buffer B was removed and the plate was washed with PBS once.
# Jurkat cells were washed with Dulbecco modified Eagle medium (SIGMA, hereinafter referred to as “DMEM”) once. Then, the cells were again suspended in a binding buffer (DMEM containing 20 mM HEPES, 0.1% BSA, 2 mM MnCl2 and 50% human blood serum (Sigma)) to become 1×10^6 cells/mL.
# Sixty μl of a test substance of various concentrations obtained by the dilution with the binding buffer was added to a round-bottom, 96-well plate (IWAKI). Immediately thereafter, 60 μl of the Jurkat cells (1×10^6 cells/ml) were added thereto and shaken on a plate shaker (IKA-Labortechnik, IKA-SCHUTTLER MTS-4) at 1000 rpm for 10 seconds. In 120 μL of the cell suspension to which the test substance was added, each 100 μL thereof was transferred on the VCAM-1/Fc-coated plate and incubated in dark place at room temperature for 60 minutes. After the shaking on the plate shaker at 1000 rpm for 30 seconds, the solution was immediately removed. Then, the unbound cells were removed by washing them with PBS once. A buffer C (PBS containing 0.82% Triton X-100) was added to the plate in an amount of 70 μL/well. After the shaking on the plate shaker at 1000 rpm for 5 minutes, the bound Jurkat cells were lysed. After centrifuging the cells on a plate centrifuge (SIGMA 4-15C) at room temperature at 2500 rpm for 5 minutes, 50 μL of supernatant thereof was transferred to a 96-well microtiter plate (Nunc Maxisorp). Each 50 μL of Substrate Buffer (Promega, CytoTox 96 Non-Radioactive Cytotoxicity Assay) was added thereto, shaken on a plate shaker at 1000 rpm for 10 seconds and reacted in dark place at room temperature for 30 minutes. Then, each 50 μL of Stop Solution (Promega, CytoTox 96 Non-Radioactive Cytotoxicity Assay) was added thereto and shaken on a plate shaker at 1000 rpm for 10 seconds. […] The absorbance thus obtained detects an activity of lactate dehydrogenase (LDH) dissolved in the supernatant of each well. Namely, the absorbance is proportional to the number of remaining Jurkat cells on the plate via the binding to VCAM-1. The test was conducted in duplicate and the binding rate of each test substance in various concentrations was determined while the absorbance of the test substance-free well was determined to be 100% and the absorbance of the Jurkat-cell-free well was determined to be 0%. The concentration for the 50% inhibition of binding, IC50, was calculated.
# [2] = Pharmacokinetic study by intravenous administration to a rat; format: in vivo; details: plasma, 1 mg/kg; intravenous single dose, 1 mg/mL solution at 1 mL/kg, Wistar rat, active form; read-out: Total body clearance CLtot (converted)
# Method: Pharmacokinetic Study by Intravenous Administration to a Rat
# After the compounds of the present invention wherein R11 to R141 are a hydroxyl group, which were active forms, were weighed by a scale, they were adjusted by dimethylsulfoxide to become 10 mg/mL. Polyethylene glycol 400 and distilled water were added thereto to prepare 1 mg/mL of an administration solution. 1 mg/mL of the administration solution was intravenously administered as a single dose to a Wistar rat in an amount of 1 mL/kg. 1, 5, 10, 30, 60 and 180 minutes later, the drug concentration in the blood plasma obtained by blood drawing from its cervical vein over time under anesthesia was determined with LC/MS. From the obtained results, the area under the plasma concentration time curve from zero to time infinity (AUCinf (iv)) was calculated in accordance with the trapezoidal method of pharmacokinetic analysis. The total body clearance (CLtot, [L/hr/kg]) was calculated as an index of drug disappearance in the blood plasma from a dose [mg/kg] and AUC [μg×hr/mL] in accordance with the formula: CLtot=Dose÷AUCinf(iv).
# [3] = tested on: lymphocytes in the peripheral blood; assay: Activity to elevate the number of lymphocytes in the peripheral blood in a rat; format: in vivo, male Wistar rat; details: oral, criterion 150% or more of vehicle group
# Method: Activity to Elevate the Number of Lymphocytes in the Peripheral Blood in a Rat
# The activity of the compounds of the present invention to elevate the number of lymphocytes in the rat was examined.
# A dosing solution was prepared by dissolving the compounds of the present invention to dimethylsulfoxide, adding the mixed solution of polyethylene glycol 400: propylene glycol=1:1 and turning it upside and down repeatedly. The final concentration of DMSO was adjusted to become 2.5%.
# The dosing solution of a test substance (3 mg/kg, 10 mg/kg or 30 mg/kg) was orally administered to a male Wistar rat (6 to 8 weeks age) in an amount of 4 mL/kg. After the settled time points after the administration, the blood was drawn from its abdominal large vein under anesthesia and stirred in a EDTA-2K coated container for blood collection. Then, the number of lymphocytes in the peripheral blood was determined by an automated comprehensive hematology analyzer (SF-3000, Sysmex). The test was executed in n=5, and the ratio (%) of the number of lymphocytes in the peripheral blood in a test-substance-administered group to that in a vehicle-treated group (a control group) was calculated while the average value of the number of lymphocytes in the peripheral blood in a control group was determined to be 100%.
# T1 sequence (P13612 34-1032): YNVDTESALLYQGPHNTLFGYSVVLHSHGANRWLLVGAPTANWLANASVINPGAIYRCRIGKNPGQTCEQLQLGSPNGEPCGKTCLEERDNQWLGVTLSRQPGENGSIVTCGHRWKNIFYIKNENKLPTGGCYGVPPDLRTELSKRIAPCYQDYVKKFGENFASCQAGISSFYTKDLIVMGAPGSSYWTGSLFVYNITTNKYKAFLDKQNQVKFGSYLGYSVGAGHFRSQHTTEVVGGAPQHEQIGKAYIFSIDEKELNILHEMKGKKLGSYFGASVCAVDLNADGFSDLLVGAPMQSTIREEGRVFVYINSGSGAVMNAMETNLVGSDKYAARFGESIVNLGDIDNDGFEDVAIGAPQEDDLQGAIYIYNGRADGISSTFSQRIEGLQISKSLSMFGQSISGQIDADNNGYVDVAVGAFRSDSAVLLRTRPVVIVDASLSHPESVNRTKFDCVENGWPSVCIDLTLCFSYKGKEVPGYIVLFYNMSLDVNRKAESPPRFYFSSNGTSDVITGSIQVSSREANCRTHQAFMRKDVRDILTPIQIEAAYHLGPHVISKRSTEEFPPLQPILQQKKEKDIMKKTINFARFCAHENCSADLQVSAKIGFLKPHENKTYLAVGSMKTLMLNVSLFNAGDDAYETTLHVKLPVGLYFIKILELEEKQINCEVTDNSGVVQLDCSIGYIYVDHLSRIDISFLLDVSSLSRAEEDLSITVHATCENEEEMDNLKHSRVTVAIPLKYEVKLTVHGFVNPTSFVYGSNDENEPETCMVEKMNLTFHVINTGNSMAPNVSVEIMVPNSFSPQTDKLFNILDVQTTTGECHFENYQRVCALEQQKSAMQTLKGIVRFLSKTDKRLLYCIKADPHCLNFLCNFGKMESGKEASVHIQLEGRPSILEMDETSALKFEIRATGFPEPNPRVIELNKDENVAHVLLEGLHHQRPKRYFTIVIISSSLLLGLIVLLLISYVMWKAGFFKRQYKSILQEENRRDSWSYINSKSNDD
# T1 sequence (P05556 21-798): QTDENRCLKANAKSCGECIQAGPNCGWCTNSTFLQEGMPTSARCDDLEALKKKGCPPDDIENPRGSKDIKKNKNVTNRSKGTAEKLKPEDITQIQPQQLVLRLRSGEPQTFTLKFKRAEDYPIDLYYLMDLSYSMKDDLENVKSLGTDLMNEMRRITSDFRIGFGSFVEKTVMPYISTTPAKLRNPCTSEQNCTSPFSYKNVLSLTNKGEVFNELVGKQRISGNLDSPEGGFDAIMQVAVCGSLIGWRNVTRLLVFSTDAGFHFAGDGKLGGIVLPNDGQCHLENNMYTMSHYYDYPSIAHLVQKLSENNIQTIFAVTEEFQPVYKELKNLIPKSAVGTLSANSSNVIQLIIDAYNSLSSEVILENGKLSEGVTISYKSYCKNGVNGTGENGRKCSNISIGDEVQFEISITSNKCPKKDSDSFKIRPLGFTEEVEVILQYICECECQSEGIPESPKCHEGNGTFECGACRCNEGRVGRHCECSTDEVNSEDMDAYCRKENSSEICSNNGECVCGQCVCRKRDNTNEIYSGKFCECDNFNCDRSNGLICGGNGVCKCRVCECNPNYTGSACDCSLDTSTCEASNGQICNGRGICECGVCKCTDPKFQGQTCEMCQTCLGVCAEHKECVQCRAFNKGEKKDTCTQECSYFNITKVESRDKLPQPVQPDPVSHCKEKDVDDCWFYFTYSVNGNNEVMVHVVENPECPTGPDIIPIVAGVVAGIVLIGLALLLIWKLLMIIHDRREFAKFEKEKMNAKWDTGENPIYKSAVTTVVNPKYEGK
clearance [2],Structure (SMILES),"Elevation of lymphocytes in the peripheral blood, pass/failure ([3]; 30 mg/kg, 12 hours later)",also measured
5.17 mL/min/kg,"CN(C)Cc1ccc2c(=O)n(-c3ccc(C[C@H](NC(=O)c4c(Cl)cccc4Cl)C(=O)O)cc3)c(=O)n(C)c2c1.O=C(O)C(F)(F)F [Example 34, N-(2,6-dichlorobenzoyl)-4-[7-[(dimethylamino)methyl]-1-methyl-2,4-quinazoline-dione-3-yl]-L-phenylalanine Trifluoroacetate]",,IC50 [1]: 10.5 nM
5.5 mL/min/kg,"CSc1ccc2c(c1)c(=O)n(-c1ccc(C[C@H](NC(=O)c3c(Cl)cccc3Cl)C(=O)O)cc1)c(=O)n2C [Example 37, N-(2,6-dichlorobenzoyl)-4-[1-methyl-6-(methylthio)-2,4-quinazoline-dione-3-yl]-L-phenylalanine]",,
3.17 mL/min/kg,"Cn1c(=O)n(-c2ccc(C[C@H](NC(=O)c3c(Cl)cccc3Cl)C(=O)O)cc2)c(=O)c2ccc(N3CCCC3)cc21.O=C(O)C(F)(F)F [Example 40, N-(2,6-dichlorobenzoyl)-4-[1-methyl-7-(pyrrolidine-1-yl)-2,4-quinazoline-dione-3-yl]-L-phenylalanine trifluoroacetate]",,
4.5 mL/min/kg,CCNCc1ccc2c(c1)c(=O)n(-c1ccc(C[C@H](NC(=O)c3c(Cl)cccc3Cl)C(=O)O)cc1)c(=O)n2C [Example 54],,IC50 [1]: 14.5 nM
5.33 mL/min/kg,Cn1c(=O)n(-c2ccc(C[C@H](NC(=O)c3c(Cl)cccc3Cl)C(=O)O)cc2)c(=O)c2cc(-n3ccnc3N)ccc21 [Example 59],,
3.83 mL/min/kg,CNCc1ccc2c(c1)c(=O)n(-c1ccc(C[C@H](NC(=O)c3c(Cl)cccc3Cl)C(=O)O)cc1)c(=O)n2C [Example 99],,IC50 [1]: 11.2 nM
,"CNCc1ccc2c(=O)n(-c3ccc(C[C@H](NC(=O)c4c(Cl)cccc4Cl)C(=O)OCC(C)C)cc3)c(=O)n(C)c2c1 [Example 158, N-(2,6-dichlorobenzoyl)-4-[7-methylaminomethyl-1-methyl-2,4-quinazoline-dione-3-yl]-L-phenylalanine isobutylester]",,"Elevation of lymphocytes in the peripheral blood, pass/failure ([3]; 10 mg/kg, 6 hours later): ◯ (pass (criterion measure or more))"
,"CCCNCc1ccc2c(=O)n(-c3ccc(C[C@H](NC(=O)c4c(Cl)cccc4Cl)C(=O)OC(C)C)cc3)c(=O)n(C)c2c1 [Example 159, N-(2,6-dichlorobenzoyl)-4-[1-methyl-7-propylaminomethyl-2,4-quinazoline-dione-3-yl]-L-phenylalanine isopropylester]",,"Elevation of lymphocytes in the peripheral blood, pass/failure ([3]; 10 mg/kg, 6 hours later): ◯ (pass (criterion measure or more))"
,"CC(C)OC(=O)[C@H](Cc1ccc(-n2c(=O)c3cc(CN)ccc3n(C)c2=O)cc1)NC(=O)c1c(Cl)cccc1Cl [Example 174, Isopropyl (2S)-3-[4-(6-(aminomethyl)-1-methyl-2,4-dioxo-1,2,3,4-tetrahydro-3(2H)-quinazolinyl)phenyl]-2-[(2,6-dichlorobenzoyl)amino]propanoate]",◯ (pass (criterion measure or more)),
,"CNCc1cc2c(=O)n(-c3ccc(C[C@H](NC(=O)c4c(Cl)cccc4Cl)C(=O)OC(C)C)cc3)c(=O)n(C)c2cc1F [Example 184, Isopropyl (2S)-2-[(2,6-dichlorobenzoyl)amino]-3-[4-(7-fluoro-1-methyl-6-[(methylamino)methyl]-2,4-dioxo-1,2,3,4-tetrahydro-3(2H)-quinazolinyl)phenyl]propanoate]",◯ (pass (criterion measure or more)),
,"CNCc1ccc2c(c1)c(=O)n(-c1ccc(C[C@H](NC(=O)c3c(C)cccc3Cl)C(=O)OC(C)C)cc1)c(=O)n2C [Example 187, Isopropyl (2S)-2-[(2-chloro-6-methylbenzoyl)amino]-3-[4-(1-methyl-6-[(methylamino)methyl]-2,4-dioxo-1,2,3,4-tetrahydro-3(2H)-quinazolinyl)phenyl]propanoate]",◯ (pass (criterion measure or more)),
,"CNCCc1cc2c(=O)n(-c3ccc(C[C@H](NC(=O)c4c(Cl)cccc4Cl)C(=O)OC(C)C)cc3)c(=O)n(C)c2cc1F [Example 228, N-(2,6-dichlorobenzoyl)-4-{7-fluoro-1-methyl-6-[2-(methylamino)ethyl]-2,4-dioxo-1,2,3,4-tetrahydroquinazoline-3(2H)-yl}-L-phenylalanine isopropylester]",◯ (pass (criterion measure or more)),
,"CC(C)OC(=O)[C@H](Cc1ccc(-n2c(=O)c3cc(CO)ccc3n(C)c2=O)cc1)NC(=O)c1c(Cl)cccc1Cl [Example 234, N-(2,6-dichlorobenzoyl)-4-[6-(hydroxymethyl)-1-methyl-2,4-dioxo-1,2,3,4-tetrahydroquinazoline-3-(2H)-yl]-L-phenylalanine isopropylester]",◯ (pass (criterion measure or more)),
